The values below come from patent publication US10993976B2, “Medicament for treating uremia and proteinuria” (Shandong Zhonghai Pharmaceutical CO. LTD, priority 2016, dated 2021).

The test relates to patient who is suffering from CRF of renal insufficiency at decompensation stage. Nature of the test: Clinical application of the medicament in treating uremia and proteinuria (Embodiment 7 test method). Format: in vivo, human. The text has this:
Patient selection: choose the patient who is suffering from CRF of renal insufficiency at decompensation stage (The content of SCr is within the range of 186-442 umol/L) to study. The primary disease is chronic glomerulonephritis (CGN) and nephrotic syndrome (NS), except CRF caused by renal arteriosclerosis, diabetic nephropathy and renal cysts.
These investigated patients were randomly divided into groups, 50 patients in each group, aged 19-66 years (mean 44.6±12.6 years), with a course of disease 12-46 months (mean 22.6±8.6 months).
Treatment group 1-6: The patients in embodiment 1-6 received the medicament mentioned of the invention, with a dose of 3 g/day, three times a day.
Control group: The patients received the oral administration of coated aldehyde oxystarch 5 g-10 g, twice a day.
All groups were treated with 1 month as a course of treatment.
The patients stopped using Chinese and western medicine 2 weeks before treatment. […] They were given high quality low protein, low phosphorus and high calorie diet, correction of water and electrolyte disorders and acidosis, and anti-infection, in order to remove those reversible factors that may cause temporary renal dysfunction. Lotensin 5-20 mg was given to the patients with hypertension, once a day, or/and nifedipine 10-20 mg, three or four times a day.
X2 test was used for enumeration data and t test was used for measurement data. […]

Setting [1] is: 50 patients per group, after 3 courses of treatment (1 month each), medicament 3 g/day.
Setting [2] is: patients, after 3 courses of treatment.

With coated aldehyde oxystarch [Contrast], the “Total effective rate (%)” value (50 patients per group, after 3 courses of treatment) is 64%. For the same substance, under setting [1], the “Effective (case)” value turned out to be 22 case, the “Ineffective (case)” value was 18 case and the “Markedly effective (case)” value came out at 10 case. In addition, under “Fib, patients, after 3 courses of treatment”, the “Blood coagulation factor I” value is listed as 3.88 ± 0.48 g/L. This substance yielded a Hb (hemoglobin, patients, after 3 courses of treatment) of 82.4 ± 9.5 g/L. Under “patients, 24 h urine protein, after 3 courses of treatment”, this substance came in with a Urine protein of 2.78 ± 1.59 g/24 h. Under setting [2], this substance gave a Blood usea nitrogen of 16.0 ± 6.4 mmol/L, an SCr of 298.5 ± 76.8 µmol/L and a Whole blood viscosity of 4.98 ± 1.0. In addition, the Alb (plasma albumin, patients, after 3 courses of treatment) is listed as 30.4 ± 3.0 g/L.
